*: point of attachment. NHNH2 = NN*
Legend:
Format in all cases: cell-based
ARPE19 cells = assay: EGFP mRNA delivery, robotic library screening, ARPE19
Method: Cells were seeded in a 96 well plate the day before the experiment at a concentration of 50,000 cell/mL (100 μL/w) in DMEM+10% FBS+1% Gln-Abt. For robotic library screening, the delivery of EGFP-mRNA (from TriLink, fully substituted with 5-methoxyuridine, capped and polyadenylated; TriLink, CleanCap® EGFP mRNA (5moU), ref. L-7201) in six different cell lines was performed. Amphiphilic molecule stock solutions were prepared in DMSO as described above and diluted in DMEM to afford a range of concentrations. The solutions of EGFP-mRNA/amphiphilic molecule complexes were freshly prepared prior to the transfection experiments. 35 μL of the corresponding amphiphile were added to 10 μL of a solution of EGFP-mRNA at 10 ng/μL in DMEM. The mixture was shaken for 30 min at room temperature before the addition to the cells. The cell medium was aspirated, and cells were washed with PBS twice. Cells were covered with 39 μL of DMEM and 11 μL of the complex's solution were added to the cells and incubated for 4 h (final concentration of peptide=2.5, 5 and 10 μM; final concentration of EGFP-mRNA=25 ng/well). After the incubation, the medium was replaced by 100 μL of fresh DMEM supplemented with 10% FBS. The total EGFP fluorescence was quantified after 72 h in a well plate reader. Amphiphile transfection efficiency was compared and normalized to Lipofectamine® MessengerMax efficiency (value of 1 in Tables 1-5 and 7; double underlined numbers). All experiments were done in triplicate.
(§1) Tables 1-7: RLuc (pDNA) or EGFP (mRNA) expression levels were normalized to Lipofectamine reagents (value=1) and expressed as fold-times signal increase. In the case of siRNA, the siRNA treated cells fluorescence was compared with siMOCK control fluorescence, while Cas9-RNP mediated knockout was measured against the fluorescence of untreated cells. In both siRNA and Cas9-RNP, values are expressed as % fluorescence reduction. Amphiphile concentration was 5 μM in all cases. All experiments were performed in triplicate.
Tables 14-19 show the mean (triplicates) fluorescence intensity measured after the transfection of EGFP mRNA by different amphiphiles at different concentrations in a variety of cell lines. Background fluorescence values, accounted by untreated control cells, were subtracted for processing.

HepG2 cells = assay: EGFP mRNA delivery, robotic library screening, HepG2; conditions: HepG2 cells
Summary of the method: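 This robotic library screen tested delivery of CleanCap EGFP mRNA (5moU) into HepG2 cells using amphiphilic molecules. Complexes were freshly prepared at room temperature and added to the cells, and the medium was then replaced with fresh DMEM plus 10% FBS. Total EGFP fluorescence was measured in a plate reader at 72 h in triplicate, with untreated-cell background subtracted.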

[1] = tested on: HCT116 cells expressing EGFP; assay: EGFP-targeting siRNA delivery (GFP silencing vs siMOCK), HCT116
Method: To generate an EGFP expressing HeLa cell line, HeLa cells were transfected with EGFP pDNA (pEGFP-C1, Clontech) and stable transfectants were selected with 400 μg/mL of G-418 (Millipore). Green clones were selected by epifluorescence microscopy and tested for EGFP expression stability through several passages. […] All other EGFP-expressing cell lines were obtained in a similar way from parent non-EGFP-expressing cell lines.
Cells expressing EGFP were seeded in a 96 well plate the day before the experiment at a concentration of 50,000 cell/mL (100 μL/w) in DMEM+10% FBS+1% Gln-Abt. For robotic library screening, the delivery of an EGFP-targeting siRNA (EGFP: enhanced green fluorescent protein, Ambion® Silencer® GFP Positive Control siRNA (siGFP) (AM4626)) in six different cell lines expressing EGFP was performed. Amphiphilic molecules stock solutions in DMSO were diluted with DMEM and freshly mixed with siRNA stock solutions in DMEM prior to transfection experiments, to afford several complexes at different amphiphile concentration (2-10 μM) while maintaining a constant final siRNA concentration of 30 nM. The mixture was shaken for 30 min at room temperature (rt) before the addition to the cells. The cell medium was aspirated, and cells were washed twice with PBS. Finally, 50 μL of the solution of siRNA/amphiphile complexes were added to the cells and incubated for 4 h. After transfection, the medium was replaced by 100 μL of fresh DMEM supplemented with 10% FBS. The fluorescence knockdown was quantified after 72 h in a plate reader, by comparison with cells transfected with a non-targeting siRNA control (siMOCK, Silencer™ Negative Control No. 1 siRNA (siMOCK) (AM4611)). EGFP knockdown was compared with Lipofectamine® RNAiMAX silencing efficiency (30-60% depending on cell line, defined with a numeric value in the below tables). All experiments were done in triplicate.
as §1
Tables 20-25 show the mean (triplicates) percentage of GFP-silencing, accounted by fluorescence intensity decrease relative to a non-targeting siRNA (siMOCK) control, measured after the transfection of siRNA by different amphiphiles at different concentrations in a variety of cell lines. Background values, accounted by untreated control cells, were subtracted for processing.

Ac-RRHK*RLK*RRLK*RL-NH2 (Ac-RRHK(NHNH2)RLK(NHNH2)RRLK(NHNH2)RL-NH2; not fully specified; printed as Ac-RRHK*RLK*RRLK*RL-NH2; also: K*4,K*7,K*11: native or modified lysine (ε-amide to a linker)) [13(Leu-His)]
mean fluorescence intensity (EGFP mRNA) (ARPE19 cells; Petroselinyl, 5 μM): 318
mean fluorescence intensity (EGFP mRNA) (ARPE19 cells; Petroselinyl, 10 μM): 419
mean fluorescence intensity after transfection of EGFP mRNA (HepG2 cells; Myristoleyl, 5 μM): 2950
mean fluorescence intensity after transfection of EGFP mRNA (HepG2 cells; Myristoleyl, 15 μM): 308
mean fluorescence intensity after transfection of EGFP mRNA (HepG2 cells; Palmitoleyl, 5 μM): 1636
mean fluorescence intensity after transfection of EGFP mRNA (HepG2 cells; Palmitoleyl, 10 μM): 574
mean fluorescence intensity after transfection of EGFP mRNA (HepG2 cells; Palmitoleyl, 15 μM): −350
percentage of GFP-silencing relative to siMOCK ([1]; Dodecanal, 5 μM): 43%
percentage of GFP-silencing relative to siMOCK ([1]; Dodecanal, 10 μM): 43%
percentage of GFP-silencing relative to siMOCK ([1]; Dodecanal, 15 μM): 40%
percentage of GFP-silencing relative to siMOCK ([1]; Palmitoleyl, 5 μM): 43%
percentage of GFP-silencing relative to siMOCK ([1]; Palmitoleyl, 10 μM): 49%
percentage of GFP-silencing relative to siMOCK ([1]; Petroselinyl, 5 μM): 47%
percentage of GFP-silencing relative to siMOCK ([1]; Petroselinyl, 10 μM): 29%

Ac-RRLK*RLK*RRLK*RL-NH2 [Peptide 13.3]
mean fluorescence intensity (EGFP mRNA) (ARPE19 cells; Dodecanal, 5 μM): 1162
mean fluorescence intensity (EGFP mRNA) (ARPE19 cells; Dodecanal, 10 μM): 1636
mean fluorescence intensity (EGFP mRNA) (ARPE19 cells; Myristoleyl, 2.5 μM): 1787
mean fluorescence intensity (EGFP mRNA) (ARPE19 cells; Myristoleyl, 5 μM): 1055
mean fluorescence intensity (EGFP mRNA) (ARPE19 cells; Myristoleyl, 10 μM): 1763
mean fluorescence intensity (EGFP mRNA) (ARPE19 cells; Petroselinyl, 2.5 μM): 1485
mean fluorescence intensity (EGFP mRNA) (ARPE19 cells; Petroselinyl, 5 μM): 828
mean fluorescence intensity (EGFP mRNA) (ARPE19 cells; Petroselinyl, 10 μM): 1310
mean fluorescence intensity after transfection of EGFP mRNA (HepG2 cells; Dodecanal, 10 μM): 674
mean fluorescence intensity after transfection of EGFP mRNA (HepG2 cells; Dodecanal, 15 μM): 606
mean fluorescence intensity after transfection of EGFP mRNA (HepG2 cells; Oleyl, 5 μM): 1087
mean fluorescence intensity after transfection of EGFP mRNA (HepG2 cells; Palmitoleyl, 5 μM): 689
mean fluorescence intensity after transfection of EGFP mRNA (HepG2 cells; Palmitoleyl, 10 μM): 986
mean fluorescence intensity after transfection of EGFP mRNA (HepG2 cells; Palmitoleyl, 15 μM): 974
mean fluorescence intensity after transfection of EGFP mRNA (HepG2 cells; Petroselinyl, 10 μM): 1128
mean fluorescence intensity after transfection of EGFP mRNA (HepG2 cells; Petroselinyl, 15 μM): 967
percentage of GFP-silencing relative to siMOCK ([1]; Dodecanal, 5 μM): 45%
percentage of GFP-silencing relative to siMOCK ([1]; Dodecanal, 15 μM): 31%
percentage of GFP-silencing relative to siMOCK ([1]; Myristoleyl, 15 μM): −5%
percentage of GFP-silencing relative to siMOCK ([1]; Oleyl, 5 μM): 55%
percentage of GFP-silencing relative to siMOCK ([1]; Oleyl, 10 μM): 46%
percentage of GFP-silencing relative to siMOCK ([1]; Oleyl, 15 μM): 14%
percentage of GFP-silencing relative to siMOCK ([1]; Palmitoleyl, 10 μM): 31%
percentage of GFP-silencing relative to siMOCK ([1]; Palmitoleyl, 15 μM): 28%
percentage of GFP-silencing relative to siMOCK ([1]; Petroselinyl, 5 μM): 1%

Ac-RRLK*RLLRRLK*RLK*RRL-NH2 (Ac-RRLK(NHNH2)RLLRRLK(NHNH2)RLK(NHNH2)RRL-NH2; not fully specified; printed as Ac-RRLK*RLLRRLK*RLK*RRL-NH2; also: K*4,K*11,K*14: native or modified lysine (ε-amide to a linker)) [Peptide 17.3]
mean fluorescence intensity (EGFP mRNA) (ARPE19 cells; Dodecanal, 5 μM): 466
mean fluorescence intensity (EGFP mRNA) (ARPE19 cells; Myristoleyl, 5 μM): 323
mean fluorescence intensity (EGFP mRNA) (ARPE19 cells; Myristoleyl, 10 μM): 393
mean fluorescence intensity (EGFP mRNA) (ARPE19 cells; Petroselinyl, 2.5 μM): 479
mean fluorescence intensity (EGFP mRNA) (ARPE19 cells; Petroselinyl, 5 μM): 351
mean fluorescence intensity (EGFP mRNA) (ARPE19 cells; Petroselinyl, 10 μM): 293
mean fluorescence intensity after transfection of EGFP mRNA (HepG2 cells; Dodecanal, 5 μM): 32417
mean fluorescence intensity after transfection of EGFP mRNA (HepG2 cells; Dodecanal, 10 μM): 2293
mean fluorescence intensity after transfection of EGFP mRNA (HepG2 cells; Myristoleyl, 5 μM): 39022
mean fluorescence intensity after transfection of EGFP mRNA (HepG2 cells; Myristoleyl, 10 μM): 251
mean fluorescence intensity after transfection of EGFP mRNA (HepG2 cells; Myristoleyl, 15 μM): −417
mean fluorescence intensity after transfection of EGFP mRNA (HepG2 cells; Oleyl, 5 μM): 6483
mean fluorescence intensity after transfection of EGFP mRNA (HepG2 cells; Palmitoleyl, 5 μM): 63064
mean fluorescence intensity after transfection of EGFP mRNA (HepG2 cells; Palmitoleyl, 10 μM): 7710
mean fluorescence intensity after transfection of EGFP mRNA (HepG2 cells; Palmitoleyl, 15 μM): 356
mean fluorescence intensity after transfection of EGFP mRNA (HepG2 cells; Petroselinyl, 5 μM): 56287
mean fluorescence intensity after transfection of EGFP mRNA (HepG2 cells; Petroselinyl, 10 μM): 5790
mean fluorescence intensity after transfection of EGFP mRNA (HepG2 cells; Petroselinyl, 15 μM): 157
percentage of GFP-silencing relative to siMOCK ([1]; Myristoleyl, 15 μM): 78%
percentage of GFP-silencing relative to siMOCK ([1]; Oleyl, 10 μM): 44%
percentage of GFP-silencing relative to siMOCK ([1]; Oleyl, 15 μM): 64%
percentage of GFP-silencing relative to siMOCK ([1]; Petroselinyl, 15 μM): 66%
